Test results taken from ChEMBL document CHEMBL1151043, “The synthesis and antibacterial activity of 2-para-quarternary ammoniomethylphenyl-carbapenems” (1993).
In brackets after ≈: the same amount, converted by molar mass.

Tests used:
Escherichia coli [1] = test: Minimum inhibitory concentration required for the antibacterial activity against Escherichia coli; assay type: functional
Staphylococcus aureus [2] = test: Minimum inhibitory concentration required for the antibacterial activity against Staphylococcus aureus; assay type: functional
Enterobacter [3] = test: Minimum inhibitory concentration required for the antibacterial activity against Enterobacter; assay type: functional
Klebsiella [4] = test: Minimum inhibitory concentration required for the antibacterial activity against Klebsiella; assay type: functional
Pseudomonas [5] = test: Minimum inhibitory concentration required for the antibacterial activity against Pseudomonas relative to Thienamycin (1); assay type: functional
Proteus [6] = test: Minimum inhibitory concentration required for the antibacterial activity against Proteus; assay type: functional, Proteus sp.
Enterococcus [7] = test: Minimum inhibitory concentration required for the antibacterial activity against Enterococcus; assay type: functional
[8] = target: T1, Dipeptidase 1 (Sus scrofa) (UniProt P22412); test: Susceptibility of compound towards porcine Dehydropeptidase-1 relative to imipenem as […] was calculated
T1 sequence (whole entry): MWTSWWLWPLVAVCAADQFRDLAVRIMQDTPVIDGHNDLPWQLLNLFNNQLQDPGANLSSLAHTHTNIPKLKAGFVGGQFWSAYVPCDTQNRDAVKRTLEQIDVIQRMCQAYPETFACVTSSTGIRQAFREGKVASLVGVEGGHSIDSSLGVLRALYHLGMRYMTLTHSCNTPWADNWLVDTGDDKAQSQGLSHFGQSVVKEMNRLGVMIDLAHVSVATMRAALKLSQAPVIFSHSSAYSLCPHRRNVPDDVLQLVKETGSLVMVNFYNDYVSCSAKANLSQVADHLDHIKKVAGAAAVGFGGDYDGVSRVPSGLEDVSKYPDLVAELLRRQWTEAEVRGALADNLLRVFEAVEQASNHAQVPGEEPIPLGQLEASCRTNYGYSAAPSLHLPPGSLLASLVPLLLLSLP

Serratia [9] = test: Minimum inhibitory concentration required for the antibacterial activity against Serratia; assay type: functional
Enterococcus [10] = test: In vitro antibacterial activity against Enterococcus relative to thienamycin; assay type: functional
Staphylococcus aureus [11] = test: In vitro antibacterial activity against Staphylococcus aureus (4) relative to Thienamycin (1); assay type: functional
Pseudomonas [12] = test: In vitro antibacterial activity against Pseudomonas relative to thienamycin; assay type: functional
Serratia [13] = test: In vitro antibacterial activity against Serratia relative to thienamycin; assay type: functional
Klebsiella [14] = test: In vitro antibacterial activity against Klebsiella relative to thienamycin; assay type: functional
Enterobacter [15] = test: In vitro antibacterial activity against Enterobacter relative to thienamycin; assay type: functional
Proteus [16] = test: In vitro antibacterial activity against Proteus relative to thienamycin; assay type: functional, Proteus sp.
Escherichia coli [17] = test: In vitro antibacterial activity against Escherichia coli relative to thienamycin; assay type: functional
Staphylococcus aureus [18] = test: In vitro antibacterial activity against Staphylococcus aureus relative to thienamycin; assay type: functional
Proteus [19] = test: In vitro antibacterial activity against Proteus relative to Thienamycinv; assay type: functional, Proteus sp.

Row | Compound | MIC (Escherichia coli [1]) | MIC (Staphylococcus aureus [2]) | MIC (Enterobacter [3]) | MIC (Klebsiella [4]) | MIC (Pseudomonas [5]) | MIC (Proteus [6]) | MIC (Enterococcus [7]) | Susceptibility [8] | MIC (Serratia [9]) | Relative potency (Enterococcus [10]) | Relative potency (Staphylococcus aureus [11]) | Relative potency (Pseudomonas [12]) | Relative potency (Serratia [13]) | Relative potency (Klebsiella [14]) | Relative potency (Enterobacter [15]) | Relative potency (Proteus [16]) | Relative potency (Escherichia coli [17]) | Relative potency (Staphylococcus aureus [18]) | Relative potency (Proteus [19])
1 | C[C@@H](O)[C@H]1C(=O)N2C(C(=O)O)=C(SCCN)C[C@H]12 [THIENAMYCIN] | 0.37 µg/mL (≈ 1.36 µM) | 0.03 µg/mL (≈ 0.11 µM) | 0.67 µg/mL (≈ 2.46 µM) | 0.88 µg/mL (≈ 3.23 µM) | 1.79 µg/mL (≈ 6.57 µM) | 1.9 µg/mL (≈ 6.98 µM) | 3.6 µg/mL (≈ 13.2 µM) | 1 | 0.93 µg/mL (≈ 3.42 µM) |  |  |  |  |  |  |  |  |  | 
2 | C[C@@H](O)[C@H]1C(=O)N2C(C(=O)O)=C(SCCNC=N)C[C@H]12.O [IMIPENEM] |  |  |  |  |  |  |  | 0.85 |  | 1.5 | 1.8 | 4 | 1.8 | 1.5 | 1.8 | 1.6 | 1.6 |  | 
3 | CO[C@@]1(NC(=O)Cc2cccs2)C(=O)N2C(C(=O)O)=C(COC(N)=O)CS[C@@H]21 [CEFOXITIN] |  |  |  |  |  |  |  |  |  | 0.06 | 0.03 |  | 0.3 | 0.04 | 0.03 | 0.6 | 0.1 |  | 
4 | C[C@@H](O)[C@H]1C(=O)N2C(C(=O)[O-])=C(c3ccc(C[n+]4ccc(CS(=O)(=O)[O-])cc4)cc3)C[C@H]12.[K+] |  |  |  |  |  |  |  | 0.06 |  | 3.5 | 0.5 | 0.04 | 9.8 | 1.6 | 9.2 | 9.8 | 6.5 |  | 
5 | C[C@@H](O)[C@H]1C(=O)N2C(C(=O)[O-])=C(c3ccc(C[n+]4cccc(C(=O)[O-])c4)cc3)C[C@H]12.[K+] |  |  |  |  |  |  |  |  |  | 5.3 | 0.6 | 0.08 | 27.9 | 2 | 12.1 | 27.9 | 6.1 |  | 
6 | C[C@@H](O)[C@H]1C(=O)N2C(C(=O)[O-])=C(c3ccc(C[n+]4cccc5ccccc54)cc3)C[C@H]12 |  |  |  |  |  |  |  | 0.07 |  | 24.3 |  | 0.07 | 27.9 | 1.2 | 8.6 | 13 | 6.1 | 1.5 | 
7 | C[C@@H](O)[C@H]1C(=O)N2C(C(=O)[O-])=C(c3ccc(C[n+]4cccc(C(=O)N(C)C)c4)cc3)C[C@H]12 |  |  |  |  |  |  |  | 0.05 |  | 5.7 | 0.3 | 0.04 | 4 | 1.1 | 3.5 | 4.6 | 2.3 |  | 
8 | C[C@@H](O)[C@H]1C(=O)N2C(C(=O)[O-])=C(c3ccc(C[n+]4ccc(CCS(=O)(=O)[O-])cc4)cc3)C[C@H]12.[K+] |  |  |  |  |  |  |  | 0.06 |  | 4.3 | 0.4 | 0.04 | 10.6 | 1.1 | 7 | 17.1 | 5.7 |  | 
9 | C[C@@H](O)[C@H]1C(=O)N2C(C(=O)[O-])=C(c3ccc(C[n+]4cc(N)cc5ccccc54)cc3)C[C@H]12 |  |  |  |  |  |  |  | 0.09 |  | 12.1 |  | 0.05 | 9.2 | 0.9 | 3.7 | 9.2 | 3.7 | 1.9 | 
10 | C[C@@H](O)[C@H]1C(=O)N2C(C(=O)[O-])=C(c3ccc(C[n+]4cccc(CSCCC#N)c4)cc3)C[C@H]12 |  |  |  |  |  |  |  | 0.05 |  | 8 | 1 | 0.08 | 14.9 | 4.6 | 8.6 | 7 | 8 |  | 

Continued, in another order:

Row | MIC (Escherichia coli [1]) | MIC (Staphylococcus aureus [2]) | MIC (Enterobacter [3]) | MIC (Klebsiella [4]) | MIC (Pseudomonas [5]) | MIC (Proteus [6]) | MIC (Enterococcus [7]) | Susceptibility [8] | MIC (Serratia [9]) | Compound | Relative potency (Enterococcus [10]) | Relative potency (Staphylococcus aureus [11]) | Relative potency (Pseudomonas [12]) | Relative potency (Serratia [13]) | Relative potency (Klebsiella [14]) | Relative potency (Enterobacter [15]) | Relative potency (Proteus [16]) | Relative potency (Escherichia coli [17]) | Relative potency (Staphylococcus aureus [18]) | Relative potency (Proteus [19])
11 |  |  |  |  |  |  |  | 0.06 |  | CSc1ccc[n+](Cc2ccc(C3=C(C(=O)[O-])N4C(=O)[C@H]([C@@H](C)O)[C@H]4C3)cc2)c1 | 10.6 | 2.6 | 0.08 | 19.7 | 3.7 | 11.3 | 9.2 | 4.3 |  | 
12 |  |  |  |  |  |  |  | 0.06 |  | Cc1cc[n+](Cc2ccc(C3=C(C(=O)[O-])N4C(=O)[C@H]([C@@H](C)O)[C@H]4C3)cc2)cc1 | 14.9 | 1.1 | 0.1 | 22.6 | 2.8 | 9.2 | 12.1 | 4.6 |  | 
13 |  |  |  |  |  |  |  | 0.04 |  | C[C@@H](O)[C@H]1C(=O)N2C(C(=O)[O-])=C(c3ccc(C[n+]4ccc(CN)cc4)cc3)C[C@H]12 | 7 | 0.5 | 0.05 | 6.1 | 0.8 | 2.6 | 4.3 | 1.7 |  | 
14 |  |  |  |  |  |  |  | 0.13 |  | C[C@@H](O)[C@H]1C(=O)N2C(C(=O)O)=C(c3ccc(CN4CCSCC4)cc3)C[C@H]12 | 9.2 |  | 0.03 | 7.5 | 1.3 | 3.2 | 7 | 2.3 | 0.9 | 
15 |  |  |  |  |  |  |  | 0.09 |  | C[C@@H](O)[C@H]1C(=O)N2C(C(=O)[O-])=C(c3ccc(C[n+]4ccc(N5CCSCC5)cc4)cc3)C[C@H]12 | 4.9 |  | 0.04 | 4.9 | 1.1 | 4.6 | 7 | 5.3 | 1.2 | 
16 |  |  |  |  |  |  |  | 0.13 |  | C[C@@H](O)[C@H]1C(=O)N2C(C(=O)O)=C(c3ccc(CN4CCOCC4)cc3)C[C@H]12 | 8.6 |  | 0.03 | 8 | 1.4 | 5.3 |  | 3.5 | 0.6 | 10.6
17 |  |  |  |  |  |  |  | 0.11 |  | C[C@@H](O)[C@H]1C(=O)N2C(C(=O)[O-])=C(c3ccc(C[n+]4ccc(N5CCCCC5)cc4)cc3)C[C@H]12 | 5.7 |  | 0.05 | 2.8 | 0.5 | 2.5 | 4 | 2.8 | 1.1 | 
18 |  |  |  |  |  |  |  | 0.05 |  | CSCc1ccc[n+](Cc2ccc(C3=C(C(=O)[O-])N4C(=O)[C@H]([C@@H](C)O)[C@H]4C3)cc2)c1 | 19.7 | 1.9 | 0.08 | 29.9 | 3.7 | 10.6 | 6.5 | 6.1 |  | 
